# Experimental data from patent US12582696B2, “Debaryomyces species as an indicator of non-healing ulcers in Crohn's disease” (Washington University, priority 2019, dated 2026).
# Experiments:
# [1] = test system: mucosal wounds in the distal colon of mice; assay: colonic biopsy injury model, mucosal wound repair in VNAM-treated mice; assay type: in vivo; conditions: day 12 post-injury
# From the text: To test the role of microbes in mucosal wound repair, a biopsy injury model was used where the timing and site of injuries are known in each experiment. Wound repair in this model occurs in distinct phases. Barrier re-establishment begins immediately upon injury and lasts for 4 days, and is characterized by the formation of wound associated epithelial (WAE) cells that cover the denuded mucosa. Wound channel formation phase (day 4-day 8), involves extensive proliferation of epithelial cells in crypts adjacent to the wound, forming channels that emanate towards the center of the wound. These two phases culminate in the formation of new crypts that is complete within 12 days post-injury.
# C57BL6 WT were purchased from Jackson Laboratories (Bar Harbor, ME) or Taconic Biosciences and acclimatized in a specific pathogen-free facility for 1 week before conducting any experiment. […]
# (§1) For hematoxylin and eosin (H&E) staining, wounds were collected and embedded in optimum cutting temperature (OCT) formulation (Thermo Fisher Scientific), and 5 μm frozen sections were obtained using a cryostat. […] Images were analyzed using Olympus CellSens Standard imaging software to measure the wound bed length defined as the distance between the two farthest crypts in the center of the wound bed. 2-3 wounds per mouse were analyzed and wound bed lengths were averaged to obtain one value per mouse. […]
# fungi = fungi in colonic wounds of biopsy-injured mice (ITS qPCR, anti-fungal antibody staining, ITS sequencing, SDA culture); assay type: in vivo; conditions: VNAM-treated mice; amphotericin B orally once daily from 3 days before injury to day 6 post-injury
# Method: Quantitative PCR was performed on the mice of Ex. 4 to identify fungal microbiota within the intestinal wounds. About three fecal pellets or 10-50 mg samples of intestinal tissue were resuspended in Tris buffer supplemented with 1000 U/ml of lyticase (Sigma), 1 mM EDTA, and 0.2% β-mercaptoethanol (Sigma). DNA was extracted using either the DNeasy PowerLyzer PowerSoil kit (Qiagen) or DNA mini stool extraction kit (Qiagen) according to manufacturer's instructions.
# Quantitative PCR was performed using SYBR Green (Roche) or SYBR Green Jumpstart Taq Ready mix (Sigma) on an Eppendorf Mastercycler (Eppendorf) using the following primers as described previously (23, 42, 52)—Saccharomyces cerevisiae: forward (5′-[…]-3′, SEQ ID NO:3), reverse (5′-[…]-3′, SEQ ID NO:4), Candida tropicalis: forward (5′-[…]-3′, SEQ ID NO:5), reverse (5′-[…]-3′, SEQ ID NO:6), Debaryomyces hansenii: forward (5′-[…]—3′, SEQ ID NO:7), reverse (5′-[…]-3′, SEQ ID NO:8) and ITS1-2: forward (5′-[…]-3′, SEQ ID NO:9), reverse (5′-[…]-3′, SEQ ID NO:10). The following conditions were used: 94° C. for 10 minutes, followed by 40 cycles of 94° C. for 30 seconds, 55° C. for 30 seconds, and 72° C. for 2 minutes, ending with 72° C. for 30 minutes. […]
# D. hansenii = assay: biopsy injury model in WT mice gavaged with D. hansenii CDA1 (human clinical isolate); assay type: in vivo; conditions: WT mice gavaged with D. hansenii CDA1 with or without amphotericin B; day 12 post-injury
# Method: For inoculation experiments, yeasts were expanded in Sabouraud dextrose agar (SDA) for 2-4 days at 30° C. prior to gavage. Mice were gavaged with pure culture of D. hansenii (obtained from the wounds of antibiotic-treated mice or inflamed tissues of Crohn's disease) or Saccharomyces cerevisiae (ATCC) at ˜10^6 CFU/mouse, unless otherwise stated, in 150 μl of PBS. Controls received PBS only. For all inoculation experiments, gavage occurred 2 days before injury, on the day of injury, and 2, 4, and 6 days post-injury unless otherwise stated.
# To ascertain whether human clinical isolates of D. hansenii were capable of inducing repair defects, the following experiments were conducted. WT mice were gavaged with D. hansenii CDA1 (Table 3) using methods similar to those described above. The CDA isolate was associated with impaired crypt regeneration in the biopsy injury model, and this effect was reversed by amphotericin B treatment (FIG. 11G, I).
# [2] = test system: mucosal wounds in the distal colon of mice; assay: biopsy injury model in WT mice without VNAM or D. hansenii gavage; assay type: in vivo; conditions: amphotericin B in the absence of D. hansenii gavage and VNAM; day 12 post-injury
# From the text: C57BL6 WT were purchased from Jackson Laboratories (Bar Harbor, ME) or Taconic Biosciences and acclimatized in a specific pathogen-free facility for 1 week before conducting any experiment. Biopsy forceps and a miniaturized colonoscope system (Karl Storz) were used to create mucosal wounds in the distal colon of mice as described previously. Briefly, mice were anesthetized using ketamine/xylazine and stool pellets were removed from the colon by flushing with PBS. Next, 3 French biopsy forceps were inserted into the colon and 3-5 thickness areas of mucosa and submucosa were removed under the guidance of an endoscopy camera. Biopsy injured mice were euthanized, and wounds were collected on days 4, 6, 8, and 12 to evaluate healing. Biopsy injury was performed by investigators blinded to the treatments.
# as §1
# Debaryomyces sp. = assay: mini screen with known water-soluble antifungals (MIC, dose-response); assay type: cell-based
# PGE2 = assay: wound PGE2 levels in VNAM administered, biopsy injured mice; assay type: in vivo; conditions: day 6 post-injury, NS-398 vs vehicle, p<0.01
# Method: Antibiotic-treated (VNAM) mice received the following cocktail for 4 weeks prior to biopsy injury until the day of sacrifice in drinking water: 0.5 g/L Vancomycin, 1 g/L Neomycin, 1 g/L Ampicillin, 1 g/L Metronidazole, and 1 g/L Kool-aid. Control mice received Kool-aid alone. Mice were treated with VNAM in the following figures: FIG. 8A-F, FIG. 9A-E, FIG. 12A-D, FIG. 13, FIG. 14, and FIG. 19A. […]
smiles,measurement,setting,value
C[C@@H]1[C@H](O)[C@@H](C)/C=C/C=C/C=C/C=C/C=C/C=C/C=C/[C@H](O[C@@H]2O[C@H](C)[C@@H](O)[C@H](N)[C@@H]2O)C[C@@H]2O[C@](O)(C[C@@H](O)C[C@@H](O)[C@H](O)CC[C@@H](O)C[C@@H](O)CC(=O)O[C@H]1C)C[C@H](O)[C@H]2C(=O)O [amphotericin B],crypt regeneration (wound bed length),"[1]; VNAM-treated mice, amphotericin B orally",reversed the crypt regeneration defects
same,fungal antigen detection in the wounds,fungi,reduced fungal antigen detection
same,impaired crypt regeneration caused by D. hansenii CDA1 (wound bed length),D. hansenii,reversed
same,repair of WT mice (wound bed length),[2],did not demonstrate any obvious defects in repair
CC[C@H](C)C[C@H](C)CCCCCCCCC(=O)N[C@H]1C[C@@H](O)[C@@H](NCCN)NC(=O)[C@@H]2[C@@H](O)CCN2C(=O)[C@H]([C@H](O)CCN)NC(=O)[C@H]([C@H](O)[C@@H](O)c2ccc(O)cc2)NC(=O)[C@@H]2C[C@@H](O)CN2C(=O)[C@H]([C@@H](C)O)NC1=O [caspofungin],MIC,Debaryomyces sp.; Debaryomyces,0.62 µg/mL
same,effectiveness compared to azoles in the antifungal screen,"Debaryomyces sp.; against Debaryomyces sp., water-soluble antifungals",most effective at lowest concentrations
CS(=O)(=O)Nc1ccc([N+](=O)[O-])cc1OC1CCCCC1 [NS-398],"wound bed length, NS-398 vs vehicle","[1]; VNAM pre-treated mice, NS-398 2.5 mg/kg i.p. twice daily days 4-10",not significant
same,wound PGE2 levels,PGE2,ablation of PGE2
